{
  "source": "patent US11357778B2",
  "about": "“Antagonist of the fibroblast growth factor receptor 3 (FGFR3) for use in the treatment or the prevention of skeletal disorders linked with abnormal activation of FGFR3” (INSTITUT NATIONAL DE LA SANTE ET DE LE RECHERCHE MEDICALE …, priority 2011, dated 2022)",
  "key": {"[1]": {"tested_on": "FGFR3^Y373C, FGFR3^K650E, FGFR3^K650M", "assay": "Constitutive FGFR3 phosphorylation in transfected human chondrocyte lines / HEK cells (immunoprecipitation, immunoblot, immunocytochemistry)", "type": "cell-based", "protocol": "Human Embryonic Kidney (HEK) cells and human chondrocyte lines (Benoist-Lasselin et al., FEBS Lett, 581: 2593-2598, 2007.) were transfected transiently with FGFR3 human constructs (FGFR^3Y373C, FGFR3^K650M, FGFR3^K650E) (Gibbs, L. and Legeai-Mallet, L. Biochim Biophys Acta, 1773: 502-512, 2007) using Fugene 6 (Roche). A31 (31) or PD173074 (Parke Davies) were added at a concentration of 2 mM overnight. Transfected cells were lysed in RIPA buffer (50 mM Tris-HCl pH 7.6, 150 mM NaCl, 0.5% NP40, 0.25% sodium deoxycholate, supplemented with protease and phosphatase inhibitors).\nImmunoprecipitation were performed by incubating […] rabbit anti-FGFR3 (Sigma)/[…] protein with protein A-agarose (Roche). […] Bound proteins were detected by chemiluminescence (ECL, Amersham). The blots were rehybrididized with an antipan-actin antibody for quantification (Millipore).\nFor immunocytochemistry, the inventors used the following primary antibodies: anti-FGFR3 antibodies (1:400 dilution; Sigma) and anti-phosphotyrosine antibodies (1:200 dilution; Cell Signaling) and secondary antibodies Alexa Fluor®488 goat antirabbit and Alexa Fluor®568 goat anti-mouse (1:400 dilution; Molecular Probes). Cells were covered with Faramount Aquaeous Mounting Medium (Dako) and analyzed using an Olympus PD70-IX2-UCB microscope. […]"}, "[2]": {"tested_on": "FGFR3^Y373C transfected NIH3T3 cells", "assay": "[3H]-thymidine incorporation in NIH3T3 cells expressing FGFR3^Y373C", "type": "cell-based, mouse", "conditions": "A31 2 mM", "protocol": "NIH-3T3 clones stably expressing FGFR3^+/+ (WT) and FGFR3^Y373C, FGFR3K650M (human constructs) were used. The stable clones were selected with G418. NIH-3T3 clones were incubated for 8 h in 10% newborn calf serum DMEM supplemented or not with A31 (2 mM). [3H] thymidine was added at a concentration of […] and incubated for 16 hours. The cells were harvested on glass fiber filter paper and assayed for radioactivity by liquid scintillation counting. The inventors used Top Count Microplates scintillation counter (Perkin Elmer).\nTo determine whether A31 modulates the mitogenic activity of activated FGFR3, the inventors measured [3H]-thymidine incorporation in FGFR3^Y373C and FGFR3^K650M transfected NIH3T3 cells. The mitogenic activity was increased in cells expressing FGFR3 mutations compared to WT (FGFR3^Y373C, 9927±2921 cpm; FGFR3^K650M, 15048±5251 cpm; WT, 7499±1667 cpm; p<10^−5 versus WT)."}, "[3]": {"tested_on": "Fgfr3^Y367C/+ growth plate", "assay": "Histology of cultured femur growth plate (HES staining, type X collagen in situ hybridization)", "type": "cell-based, mouse", "protocol": "Limb explants were fixed after culture in 4% paraformaldehyde at 4° C., and placed in a staining solution for 45-60 minutes (0.05% Alizarin Red, 0.015% Alcian Blue, 5% acetic acid in 70% ethanol) or embedded in paraffin. Serial […] were stained with Hematoxylin-Eosin using standard protocols for histological analysis or were subjected to in situ hybridization or immunohistochemical staining. In situ hybridization using [S35]-UTP labeled antisense ribopropes for collagen X was carried out as previously described (Delezoide et al., Hum Mol Genet, 6, 1899-1906, 1997). Sections were counterstained with Hematoxylin. For immunohistochemistry, sections were stained with antibodies specific to FGFR3 (1:250 dilution; Sigma), anti PCNA (1:1000 dilution; Abcam), anti-KI67 (1:300; Abcam), anti-cyclin D1 (1:80 dilution; Santa Cruz) and anti-p57 (1:100 dilution; Santa Cruz) using the Dako Envision kit. Images were captured with an Olympus PD70-IX2-UCB microscope. […] The inventors evaluated the impact of A31 on the growth plate (FIG. 4A). […] Histological examinations using HES staining (FIG. 10A) and type X collagen labeling (FIG. 10B) were also carried out."}},
  "data": [
    {"smiles": "COc1cc(OC)cc(-c2cc3cnc(NCc4cn(CC5CCCN(C)C5)nn4)nc3nc2NC(=O)NC(C)(C)C)c1", "note": "(stereo not drawn) [Compound A31]", "values": [
      {"measurement": "constitutive FGFR3 receptor phosphorylation (immunoprecipitation and Western blotting)", "setting": "[1]; 2 mM overnight, cells expressing FGFR3^Y373C, FGFR3^K650E, FGFR3^K650M", "result": "abolished receptor phosphorylation"},
      {"measurement": "FGFR3 phosphorylation by immunocytochemistry", "setting": "[1]; transfected cells expressing FGFR3 mutations, data not shown", "result": "complete inhibition"},
      {"measurement": "[3H]-thymidine incorporation (DNA synthesis)", "setting": "[2]", "result": "3144±1201", "unit": "cpm"},
      {"measurement": "size of the hypertrophic zone of the growth plate", "setting": "[3]; A31, Fgfr3^Y367C/+ femur explants", "result": "marked expansion of the hypertrophic zone"},
      {"measurement": "type X collagen expression (in situ hybridization)", "setting": "[3]; A31, Fgfr3^Y367C/+ growth plates", "result": "enhanced type X collagen expression"},
      {"measurement": "chondrocyte morphology", "setting": "[3]; A31, data not shown", "result": "enlarged and more spherical"}
    ]}
  ]
}
